In patent US9365533B2, “Coumarin derivative” (NIPPON ZOKI PHARMACEUTICAL CO., LTD., priority 2012, dated 2016):

Legend:
HFLS-OA cells = test: Suppressive action to TNF-α-induced proliferation of synovial cells (HFLS-OA), BrdU ELISA; assay type: cell-based; conditions: Synovial cell, 120 h; 200 μmol/L test substance; human recombinant TNF-α 10 ng/mL; 5 days; BrdU incorporation increase by TNF-α = 100%; read-out: Synovial Cell Proliferation Rate (%)
Procedure: Evaluation of Suppressive Action to Cell Proliferation of Synovial Cells (HFLS-OA) Derived from Tissues of Human Osteoarthritis
(1) Incubation of HFLS-OA Cells
HFLS-OA cells were sown onto a 96-well plate so as to make them 10^4 cells/well/100 μL in a D-MEM containing 2 vol % of fetal bovine serum (FBS) and incubated for 24 hours. A test substance (200 μmol/L) and human recombinant TNF-α (10 ng/mL) were added thereto followed by incubating for 5 days.
(2) Measurement of Action to HFLS-OA Cell Proliferation
A kit [Cell Proliferation ELISA, BrdU (colorimetric) (Roche Diagnostics)] was used and measurement was conducted according to the protocol attached to the kit. HFLS-OA cells were incubated for 3 days and 10 μL of 5-bromo-2′-deoxyuridine (BrdU) dissolved in a phosphate buffered saline (PBS) (100 μmol/L, pH 7.4) was added to each well followed by incubating for 48 hours more. After the culture supernatant was removed from each well, 200 μL/well of an immobilization/denaturation solution was added thereto and the mixture was allowed to stand for 30 minutes whereby immobilization of the cells and denaturation of DNA were conducted. After the immobilization/denaturation solution was completely removed, 100 μL of a peroxidase-labeled anti-BrdU antibody solution was added thereto and the mixture was made to react at room temperature for 90 minutes. After washing with PBS, 100 μL of a substrate liquid (tetramethylbenzidine) was added to each well and the absorbance was measured. A cell proliferation rate upon addition of each test substance was calculated where an increase in incorporation of BrdU upon addition of TNF-α was defined as 100% of cell proliferation rate.

[1] = tested on: cartilage pieces of bovine metacarpophalangeal joint; test: Suppressive action to cartilage destruction: release of sGAG induced by IL-1α from cartilage pieces; assay type: cell-based; conditions: Bos taurus, 96 h; 25 μmol/L test substance, 2 h pretreatment; human recombinant IL-1α 3 ng/mL; 4 days at 37° C.; read-out: sGAG Releasing Suppressive Rate (%)
Procedure: Evaluation of Suppressive Action to Cartilage Destruction [Release of sGAG Induced by Interleukin-1α (IL-1α)]
(1) Incubation of Cartilage Pieces
Each four cartilage pieces of bovine metacarpophalangeal joint were placed in each well of a 48-well plate and pretreated for 2 hours with a basal medium [D-MEM (Dulbecco's Modified Eagle Medium) containing 2 mmol/L of glutamine, 25 mmol/L of Hepes, 100 μg/mL of streptomycin, 100 IU/mL of penicillin and 5.6 μg/mL of amphotericin B] containing 25 μmol/L of a test substance. Human recombinant IL-1α (3 ng/mL) was added thereto followed by incubating at 37° C. for 4 days in a CO2 incubator set at 5 vol % of CO2. Culture supernatant and cartilage pieces were recovered and stored by freezing until the measurement for each of them.
(2) Measurement of the Amount of sGAG and Calculation of the Suppressive Rate for the Release of sGAG
The recovered cartilage pieces were treated with a papain solution [containing 1 mg/mL of papain, 100 mmol/L of sodium phosphate (pH 6.5), 5 mmol/L of L-cysteine and 5 mmol/L of disodium ethylenediaminetetraacetate (EDTA)] at 65° C. for about 16 hours to solubilize. Amount of sGAG in the resulting extract was measured using an sGAG Alcian Blue Binding Kit (Wieslab AB) which is a quantitative kit to which a Alcian blue staining protocol is applied. sGAG in the culture supernatant after the incubation was measured without subjecting to a papain treatment. Each releasing rate of sGAG was determined by the following formula to calculate the suppressive rate for the release of sGAG. Releasing rate (%) of sGAG={(Total sGAG amount in the culture supernatant)/[(Total sGAG amount in the culture supernatant)+(Total sGAG amount in the cartilage pieces)]}×100 Suppressive rate (%) for release of sGAG={[Releasing rate of sGAG (IL-1α stimulation)−Releasing rate of sGAG (Test substance)]/[Releasing rate of sGAG (IL-1α stimulation)−Releasing rate of sGAG (Non-stimulation)]}×100

Row | Structure (SMILES) | activity at 200 µM (HFLS-OA cells) [%] | inhibition at 25 µM [1] [%]
1 | O=c1oc2c(OS(=O)(=O)c3cccc([N+](=O)[O-])c3)cccc2cc1NS(=O)(=O)c1cccc(Br)c1 [Compound 54, 3-[(3-Bromophenyl)sulfonylamino]-2-oxochromen-8-yl 3-nitrobenzenesulfonate] | -44.4 | 136
2 | O=c1oc2c(OS(=O)(=O)c3cccc([N+](=O)[O-])c3)cccc2cc1NS(=O)(=O)c1ccc(-c2ccccc2)cc1 [Compound 55, 2-Oxo-3-[(4-phenylphenyl)sulfonylamino]chromen-8-yl 3-nitrobenzenesulfonate] | -32.2 | 117
3 | O=c1oc2c(OS(=O)(=O)c3cccc(C(F)(F)F)c3)cccc2cc1NS(=O)(=O)c1cccc(Br)c1 [Compound 56, 3-[(3-Bromophenyl)sulfonylamino]-2-oxochromen-8-yl 3-(trifluoromethyl)benzenesulfonate] | -44.4 | 133
4 | O=c1oc2c(OS(=O)(=O)c3ccc(C(F)(F)F)cc3)cccc2cc1NS(=O)(=O)c1cccc(C(F)(F)F)c1 [Compound 57, 2-Oxo-3-[[3-(trifluoromethyl)phenyl]sulfonylamino]-chromen-8-yl 4-(trifluoromethyl)benzenesulfonate] | -50 | 140
5 | O=c1oc2c(OS(=O)(=O)c3ccc(C(F)(F)F)cc3)cccc2cc1NS(=O)(=O)c1cccc(Br)c1 [Compound 58, 3-[(3-Bromophenyl)sulfonylamino]-2-oxochromen-8-yl 4-(trifluoromethyl)benzenesulfonate] | -42.8 | 129
6 | O=c1oc2c(OS(=O)(=O)c3cccc(Br)c3)cccc2cc1NS(=O)(=O)c1cccc([N+](=O)[O-])c1 [Compound 59, 3-[(3-Nitrophenyl)sulfonylamino]-2-oxochromen-8-yl 3-bromobenzenesulfonate] | -32.8 | 123
7 | O=c1oc2c(OS(=O)(=O)c3cccc(Br)c3)cccc2cc1NS(=O)(=O)c1cccc(C(F)(F)F)c1 [Compound 60, 2-Oxo-3-[[3-(trifluoromethyl)phenyl]sulfonylamino]-chromen-8-yl 3-bromobenzenesulfonate] | -44.4 | 138
8 | O=c1oc2c(OS(=O)(=O)c3cccc(Br)c3)cccc2cc1NS(=O)(=O)c1ccc(C(F)(F)F)cc1 [Compound 61, 2-Oxo-3-[[4-(trifluoromethyl)phenyl]sulfonylamino]-chromen-8-yl 3-bromobenzenesulfonate] | -40.6 | 140
9 | O=c1oc2c(OS(=O)(=O)c3ccc(-c4ccccc4)cc3)cccc2cc1NS(=O)(=O)c1cccc([N+](=O)[O-])c1 [Compound 62, 3-[(3-Nitrophenyl)sulfonylamino]-2-oxochromen-8-yl 4-phenylbenzenesulfonate] | -49.2 | 140
10 | O=c1oc2c(OS(=O)(=O)c3ccc(-c4ccccc4)cc3)cccc2cc1NS(=O)(=O)c1cccc(C(F)(F)F)c1 [Compound 63, 2-Oxo-3-[[3-(trifluoromethyl)phenyl]sulfonylamino]-chromen-8-yl 4-phenylbenzenesulfonate] | -47.9 | 137
11 | O=c1oc2c(OS(=O)(=O)c3ccc(-c4ccccc4)cc3)cccc2cc1NS(=O)(=O)c1ccc(C(F)(F)F)cc1 [Compound 64, 2-Oxo-3-[[4-(trifluoromethyl)phenyl]sulfonylamino]-chromen-8-yl 4-phenylbenzenesulfonate] | -45.9 | 136
12 | O=c1oc2c(OS(=O)(=O)c3ccc(-c4ccccc4)cc3)cccc2cc1NS(=O)(=O)c1cccc(Br)c1 [Compound 65, 3-[(3-Bromophenyl)sulfonylamino]-2-oxochromen-8-yl 4-phenylbenzenesulfonate] | -45.9 | 115
13 | O=c1oc2c(OS(=O)(=O)c3ccc(-c4ccccc4)cc3)cccc2cc1NS(=O)(=O)c1ccc(-c2ccccc2)cc1 [Compound 66, 2-Oxo-3-[(4-phenylphenyl]sulfonylamino]chromen-8-yl 4-phenylbenzenesulfonate] | -37.9 | 38
14 | O=c1oc2c(OS(=O)(=O)c3cccc([N+](=O)[O-])c3)cccc2cc1NS(=O)(=O)c1ccc(C(F)(F)F)cc1 [Compound 67, 2-Oxo-3-[[4-(trifluoromethyl)phenyl]sulfonylamino]-chromen-8-yl 3-nitrobenzenesulfonate] | -38.9 | 115
15 | O=c1oc2c(OS(=O)(=O)c3cccc(C(F)(F)F)c3)cccc2cc1NS(=O)(=O)c1ccc(C(F)(F)F)cc1 [Compound 68, 2-Oxo-3-[[4-(trifluoromethyl)phenyl]sulfonylamino]-chromen-8-yl 3-(trifluoromethyl)benzenesulfonate] | -42.8 | 124
16 | O=c1oc2c(OS(=O)(=O)c3ccc(C(F)(F)F)cc3)cccc2cc1NS(=O)(=O)c1cccc([N+](=O)[O-])c1 [Compound 69, 3-[(3-Nitrophenyl)sulfonylamino]-2-oxochromen-8-yl 4-(trifluoromethyl)benzenesulfonate] | -40.6 | 126
17 | O=c1oc2c(OS(=O)(=O)c3ccc(C(F)(F)F)cc3)cccc2cc1NS(=O)(=O)c1ccc(-c2ccccc2)cc1 [Compound 70, 2-Oxo-3-[(4-phenylphenyl)sulfonylamino]chromen-8-yl 4-(trifluoromethyl)benzenesulfonate] | -39 | 103
